Source: patent US20260265329A1, “POLYPEPTIDE AND DERIVATIVE THEREOF, COMPOSITION, AND USE THEREOF” (HANGZHOU SCIWIND BIOSCIENCES CO., LTD., priority 2023, published 2026)
Starred links: 1 amine or outer side, 2 acyl side, 3 side chain; linkers in the order of their positions; H or OH if unused. Non-standard residues stand in square brackets, D forms with d. Residues, ends and D or L forms follow the SMILES beside them. *: point of attachment. C20 diacid = O=C(O)CCCCCCCCCCCCCCCCCCC(=O)*; γGlu = O=C(O)[C@H](CCC(=O)[*:2])N[*:1]; Hyp = O=C(O)[C@@H]1C[C@@H](O)CN1

How the values were obtained:
human amylin receptors = biological target: T1, human amylin receptors (Homo sapiens, UniProt O60896+P30988); assay: Luciferase assay in stably transfected amylin receptor/CRE-luc CHO cell line; type: cell-based; conditions: for Relative activity: EC50 ratio of Cagrilintide to the compound, Cagrilintide 100%; for EC50: amylin receptor/CRE-luc CHO cells, 24 hours incubation, luminescence
T1 construct: host or cells: CHO-K1/Ga15/AMY3 cells, further stably transfected with a CRE-luciferase plasmid
T1 sequence (P30988 25-474): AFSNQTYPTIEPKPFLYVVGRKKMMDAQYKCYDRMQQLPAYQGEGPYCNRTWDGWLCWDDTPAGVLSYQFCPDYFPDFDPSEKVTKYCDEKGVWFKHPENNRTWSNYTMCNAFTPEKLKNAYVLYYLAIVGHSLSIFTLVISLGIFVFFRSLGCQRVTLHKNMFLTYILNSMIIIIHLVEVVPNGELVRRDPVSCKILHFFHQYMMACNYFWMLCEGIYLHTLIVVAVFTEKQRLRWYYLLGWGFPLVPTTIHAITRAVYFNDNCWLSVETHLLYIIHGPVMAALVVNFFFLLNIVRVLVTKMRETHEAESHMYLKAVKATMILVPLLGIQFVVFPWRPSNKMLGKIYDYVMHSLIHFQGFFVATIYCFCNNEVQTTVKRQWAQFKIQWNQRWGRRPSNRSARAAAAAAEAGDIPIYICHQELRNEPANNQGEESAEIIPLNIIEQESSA
T1 sequence (O60896 24-148 partner): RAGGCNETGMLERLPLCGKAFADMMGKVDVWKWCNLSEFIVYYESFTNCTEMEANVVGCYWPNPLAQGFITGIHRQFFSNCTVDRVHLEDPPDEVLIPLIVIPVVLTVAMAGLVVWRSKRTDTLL

[1] = Heat accelerated stability assay, 40° C., detection on 10 d and 20 d; type: physicochemical; conditions: 1 mg/mL, pH about 7.4, 40° C.
Outline: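 Polypeptide derivatives at 1 mg/mL with sodium dihydrogen phosphate (1.42 mg/mL) in water, pH ~7.4, sterile-filtered and held at 40° C. Sampled at 10 d and 20 d, centrifuged, and supernatant analysed by HPLC (214 nm, 25° C., phosphate pH 5.8/ACN gradient) for concentration and purity.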

[2] = Efficacy assay in SD rats, dose-dependent study (Example 5); type: in vivo; conditions: for Body weight and food intake reduction compared with Cagrilintide: equivalent dosage; for Effect on body weight / Effect on food intake: single subcutaneous dose 10, 30, 100 nmol/kg (FIGS. 3A-3D)
Method: SPF male SD rats (7-8 weeks, 220-230 g) were employed in this study after health inspection and quarantine. The experimental animals were exposed to a room temperature of 20° C.-23° C. and a relative humidity of 40%-50%, and were provided with Co60 mouse reproduction feed 1035 and purified water supplied with water feeding bottles for free intake throughout the health inspection and quarantine and the study. […] Using a single dose administered via subcutaneous injection, the study lasted for a total of 6 days with the day of administration designated as Day 1/Time 0 (TO), wherein on Day 0, the initial body weight of the animals were recorded and the initial feed was added, and on Day 1-Day 5, the body weight of the studied animals as well as the remaining food were recorded daily for calculating the percentage of weight change and the amount of food intake, any anomalies during which were required to be recorded and reported. During the study, the rats were in good condition and no anomaly was observed. Weight change=(BWTn−BWT0)/BWT0* 100%, wherein BW represented the value of body weight, and T0 and Tn represented the time points of dosing and n hours post dose respectively. Dots in the figures were represented utilizing mean±standard error of the mean (SEM). Accumulated food intake was the total amount of food intake for each of the animals prior to a certain time point post dose.

[3] = Efficacy assay in DIO SD rats, dose-dependent study (Example 6); type: in vivo; conditions: for Body weight and food intake reduction compared with Cagrilintide: equivalent dosage; for Effect on body weight / Effect on food intake: subcutaneous once a day for 10 days, 3 and 10 nmol/kg (FIGS. 4A, 4B)
Method: SPF male DIO SD rats (36-37 weeks, […], fed with high-fat diet for 34 weeks from 3-week age on) were employed in this study. The experimental animals were exposed to a room temperature of 20° C.-23° C. and a relative humidity of 40%-50%, and were provided with high-fat diet D12492 and purified water supplied with water feeding bottles for free intake throughout the construction of the DIO animal model and the study. Based on their mean body weight, the animals were assigned to 6 groups designated as B1-B6 (n=5). Administration via subcutaneous injection was conducted once a day for 10 continuous days, wherein the first day of administration was designated as Day 1 (D1), and on Day 0, the initial body weight of the animals were recorded and the initial feed was added, and on Day 1-Day 11, the body weight of the studied animals as well as the remaining food were recorded daily for calculating the percentage of weight change and the amount of food intake, any anomalies during which were required to be recorded and reported. During the study, the rats were in good condition and no anomaly was observed. Weight change=(BWDn−BWD1)/BWD1*100%, wherein BW represented the value of body weight, and D1 and Dn represented the first and Nth days of administration respectively. Dots in the figures were represented utilizing mean±standard error of the mean (SEM). Accumulated food intake was the total amount of food intake for animals of each group prior to a certain time point post dose.

in vivo = assay: in vivo; set-up: species or system SD rats; conditions: male, SD, rat, sc, 1 mg/kg
Method: The animals received a subcutaneous injection of corresponding compounds for testing (1 mg/kg and 5 ml/kg), and the day of administration was designated as D1. The whole blood of the animals was collected pre dose (-10 min) on D1 and post dose at D1-2h, D1-4h, D1-6h, D2-24h, D3-48h, D4-72h, D5-96h, and D6-120 h and was processed into plasma (using EDTA for anticoagulation). Liquid chromatography-tandem mass spectrometry (LC-MS/MS) was used to detect the concentration of drug molecules in the plasma, and GraphPad Prism 10 was utilized to plot a concentration-time curve for the drugs whose pharmacokinetic parameters including Cmax, Tmax, T1/2, AUC, and MRT were then calculated with PKSolver.

[4] = background statement; cited from earlier work

Relative activity (human amylin receptors)	EC50 (human amylin receptors)	Reduction in purity, 10 d [1]	Reduction in purity, 20 d [1]	AUC(0-inf) (in vivo)	AUC(0-t) (in vivo)	Cmax (in vivo)	MRT inf (in vivo)	Tmax (in vivo)	half-life (in vivo)	Structure (SMILES)	Body weight and food intake reduction compared with Cagrilintide [2]	Effect on body weight [2]	Effect on food intake [2]	Body weight and food intake reduction compared with Cagrilintide [3]	Effect on body weight [3]	Effect on food intake [3]	fibrillation [4]
113%	80 pM	2.93%	4.26%	257 µg·h/mL	250 µg·h/mL	4780 ng/mL	45.9 h	24 h	23.7 h	CC[C@H](C)[C@H](NC(=O)[C@@H]1CCCN1C(=O)[C@H](CCCCN)NC(=O)[C@H](CC(C)C)NC(=O)[C@H](CCC(N)=O)NC(=O)[C@H](CCC(N)=O)NC(=O)[C@H](CO)NC(=O)[C@H](CO)NC(=O)[C@H](Cc1c[nH]cn1)NC(=O)[C@H](CCCNC(=N)N)NC(=O)[C@H](CC(C)C)NC(=O)[C@H](Cc1ccccc1)NC(=O)[C@H](CC(=O)O)NC(=O)[C@H](C)NC(=O)[C@H](CC(C)C)NC(=O)[C@H](CCCNC(=N)N)NC(=O)[C@H](CCC(N)=O)NC(=O)[C@@H](NC(=O)[C@H](C)NC(=O)[C@H](C)NC(=O)[C@@H](NC(=O)[C@H](CO)NC(=O)[C@H](CC(C)C)NC(=O)[C@H](CCC(N)=O)NC(=O)[C@H](CO)NC(=O)[C@H](C)NC(=O)CC[C@H](NC(=O)CCCCCCCCCCCCCCCCCCC(=O)O)C(=O)O)[C@@H](C)O)[C@@H](C)O)C(=O)N[C@@H](CC(C)C)C(=O)N1CCC[C@H]1C(=O)N1CCC[C@H]1C(=O)N[C@H](C(=O)N[C@@H](CC(N)=O)C(=O)N[C@H](C(=O)NCC(=O)N[C@@H](CO)C(=O)N[C@@H](CC(N)=O)C(=O)N[C@H](C(=O)N1C[C@H](O)C[C@H]1C(N)=O)[C@@H](C)O)C(C)C)[C@@H](C)O [M41] ({C20 diacid-γGlu}-ASQLSTAATQRLADFLRHSSQQLKPILPPTNVGSNT[Hyp]-NH2)	performed better than Cagrilintide at the equivalent dosage	dose-dependently reduced	dose-dependently reduced	performed better than Cagrilintide at the equivalent dosage	dose-dependently reduced	dose-dependently reduced	
180%	50 pM	3.6%	6.6%	217 µg·h/mL	214 µg·h/mL	4930 ng/mL	39 h	24 h	21.3 h	CC[C@H](C)[C@H](NC(=O)[C@@H]1CCCN1C(=O)[C@H](CCCCN)NC(=O)[C@H](CC(C)C)NC(=O)[C@H](CO)NC(=O)[C@H](CO)NC(=O)[C@H](CO)NC(=O)[C@H](CO)NC(=O)[C@H](Cc1c[nH]cn1)NC(=O)[C@H](CCCNC(=N)N)NC(=O)[C@H](CC(C)C)NC(=O)[C@H](Cc1ccccc1)NC(=O)[C@H](CC(=O)O)NC(=O)[C@H](C)NC(=O)[C@H](CC(C)C)NC(=O)[C@H](CCCNC(=N)N)NC(=O)[C@H](CCC(N)=O)NC(=O)[C@@H](NC(=O)[C@H](C)NC(=O)[C@H](C)NC(=O)[C@@H](NC(=O)[C@H](CO)NC(=O)[C@H](CC(C)C)NC(=O)[C@H](CCC(N)=O)NC(=O)[C@H](CO)NC(=O)[C@H](C)NC(=O)CC[C@H](NC(=O)CCCCCCCCCCCCCCCCCCC(=O)O)C(=O)O)[C@@H](C)O)[C@@H](C)O)C(=O)N[C@@H](CC(C)C)C(=O)N1CCC[C@H]1C(=O)N1CCC[C@H]1C(=O)N[C@H](C(=O)N[C@@H](CC(N)=O)C(=O)N[C@H](C(=O)NCC(=O)N[C@@H](CO)C(=O)N[C@@H](CC(N)=O)C(=O)N[C@H](C(=O)N1C[C@H](O)C[C@H]1C(N)=O)[C@@H](C)O)C(C)C)[C@@H](C)O [M43] ({C20 diacid-γGlu}-ASQLSTAATQRLADFLRHSSSSLKPILPPTNVGSNT[Hyp]-NH2)	performed better than Cagrilintide at the equivalent dosage	dose-dependently reduced	dose-dependently reduced	performed better than Cagrilintide at the equivalent dosage	dose-dependently reduced	dose-dependently reduced	
										CC[C@H](C)[C@H](NC(=O)[C@@H]1CCCN1C(=O)CNC(=O)[C@H](Cc1ccccc1)NC(=O)[C@H](CC(N)=O)NC(=O)[C@H](CC(N)=O)NC(=O)[C@H](CO)NC(=O)[C@H](CO)NC(=O)[C@H](Cc1c[nH]cn1)NC(=O)[C@@H](NC(=O)[C@H](CC(C)C)NC(=O)[C@H](Cc1ccccc1)NC(=O)[C@H](CC(N)=O)NC(=O)[C@H](C)NC(=O)[C@H](CC(C)C)NC(=O)[C@H](CCCNC(=N)N)NC(=O)[C@H](CCC(N)=O)NC(=O)[C@@H](NC(=O)[C@H](C)NC(=O)[C@@H]1CSSC[C@H](NC(=O)[C@@H](N)CCCCN)C(=O)N[C@@H](CC(N)=O)C(=O)N[C@@H]([C@@H](C)O)C(=O)N[C@@H](C)C(=O)N[C@@H]([C@@H](C)O)C(=O)N1)[C@@H](C)O)C(C)C)C(=O)N[C@@H](CC(C)C)C(=O)N1CCC[C@H]1C(=O)N1CCC[C@H]1C(=O)N[C@H](C(=O)N[C@@H](CC(N)=O)C(=O)N[C@H](C(=O)NCC(=O)N[C@@H](CO)C(=O)N[C@@H](CC(N)=O)C(=O)N[C@H](C(=O)N[C@@H](Cc1ccc(O)cc1)C(N)=O)[C@@H](C)O)C(C)C)[C@@H](C)O [Pramlintide]							fibrillates at pH 7
